Data: article PMC9841532, “Exploring the Effect of Halogenation in a Series of Potent and Selective A2B Adenosine Receptor Antagonists” (Journal of Medicinal Chemistry, 2022)
Read-outs that look alike come from different tables or passages of the source.

How the values were obtained:
hA3AR [1] = molecular target: T1, hA3AR (Homo sapiens, UniProt P0DMS8); assay: Radioligand binding competition, [3H]NECA, membranes from HeLa-A3 cells; settings: 1 μM, [3H]NECA, human HeLa cells, n = 2
T1 construct: expressed in transfected cells; host or cells: HeLa (HeLa-A3) cell membranes
T1 sequence (P0DMS8 1-318): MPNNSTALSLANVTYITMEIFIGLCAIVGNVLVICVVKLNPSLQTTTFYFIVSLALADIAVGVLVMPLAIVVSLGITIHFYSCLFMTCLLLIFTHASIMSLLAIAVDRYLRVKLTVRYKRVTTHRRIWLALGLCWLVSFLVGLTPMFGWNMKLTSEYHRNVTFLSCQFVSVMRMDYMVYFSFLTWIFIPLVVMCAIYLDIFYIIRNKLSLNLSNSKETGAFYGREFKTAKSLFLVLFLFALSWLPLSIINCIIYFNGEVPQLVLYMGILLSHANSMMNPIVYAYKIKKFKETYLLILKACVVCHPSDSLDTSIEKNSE
Procedure, shortened: (§1)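 Racemates, plus selected enantiomers after chiral resolution, were tested at 25 °C, with a 60 min incubation for one subtype and 30 min for others. Non-specific binding was defined with 10 μM or 100 μM R-PIA. Bound radioactivity was counted after washing and filtration.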

hA1AR [2] = molecular target: T2, hA1AR (Homo sapiens, UniProt P30542); assay: Radioligand binding competition, [3H]DPCPX, membranes from CHO-A1 cells; settings: 1 μM, [3H]DPCPX, human CHO cells, n = 2
T2 sequence (P30542 1-326): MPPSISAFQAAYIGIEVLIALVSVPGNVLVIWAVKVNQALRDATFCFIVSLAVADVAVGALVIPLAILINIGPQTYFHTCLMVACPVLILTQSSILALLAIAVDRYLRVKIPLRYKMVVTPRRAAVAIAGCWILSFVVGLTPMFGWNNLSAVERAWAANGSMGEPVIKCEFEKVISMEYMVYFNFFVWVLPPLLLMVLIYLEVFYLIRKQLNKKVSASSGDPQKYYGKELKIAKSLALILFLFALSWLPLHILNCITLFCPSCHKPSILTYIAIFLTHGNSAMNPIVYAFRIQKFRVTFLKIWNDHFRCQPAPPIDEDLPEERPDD
Procedure, shortened: as §1

hA2BAR = molecular target: T3, hA2BAR (Homo sapiens, UniProt P29275); assay: Radioligand binding competition, [3H]DPCPX, membranes from HEK-293-A2B cells; set-up: Exp. dG: unit not given here; settings: for Ki: read-out: Ki hA2B
T3 construct: host or cells: HEK-293 (HEK-293-A2B) cell membranes
T3 sequence (P29275 1-332): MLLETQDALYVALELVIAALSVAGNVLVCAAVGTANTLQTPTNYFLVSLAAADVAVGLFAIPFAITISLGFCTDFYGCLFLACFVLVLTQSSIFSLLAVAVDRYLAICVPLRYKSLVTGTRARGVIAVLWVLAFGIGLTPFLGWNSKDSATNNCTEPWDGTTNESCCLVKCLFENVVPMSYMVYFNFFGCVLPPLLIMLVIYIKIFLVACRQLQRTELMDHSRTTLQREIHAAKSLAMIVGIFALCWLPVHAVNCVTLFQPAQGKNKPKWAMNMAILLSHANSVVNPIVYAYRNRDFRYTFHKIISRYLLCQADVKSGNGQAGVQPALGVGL
Procedure, shortened: as §1

A2BAR [3] = molecular target: T4, A2BAR (Homo sapiens, UniProt P29275); assay: cAMP accumulation assay in HEK-293 cells permanently expressing A2BAR-SNAP; format: cell-based; settings: read-out: KB (hA2B)
T4 construct: expressed in transfected cells; host or cells: HEK-293 T cells permanently expressing pRK5-A2BAR^SNAP
T4 sequence (P29275 1-332): T3 sequence (P29275 1-332)
Description: To assess their ability to block A2BAR agonist intrinsic activity, the effect on A2BAR-mediated cAMP accumulation and cellular impedance was evaluated. To this end, we used HEK-293 cells permanently expressing the A2BAR^SNAP construct, which can be visualized upon staining the cells with a SNAP-fluorescent substrate.
Scale bar: […]. […] Data are expressed as mean ± SEM (n = 4).
cAMP accumulation was measured using the LANCE Ultra cAMP kit (PerkinElmer, Waltham, Massachusetts, USA) as previously described.[55] […] The 384-well plate was incubated 1 h at 22 °C in the dark and was then read on a CLARIOstar Microplate Reader (BMG Labtech, Durham, North Carolina, USA). […] Data were fitted by non-linear regression using GraphPad Prism 9 (San Diego, California, USA).

hA2AAR [4] = molecular target: T5, hA2AAR (Homo sapiens, UniProt P29274); assay: Radioligand binding competition, [3H]ZM241385, membranes from HeLa-A2A cells; settings: 1 μM, [3H]ZM241385, human HeLa cells, n = 2
T5 construct: expressed in transfected cells; host or cells: HeLa (HeLa-A2A) cell membranes
Procedure, shortened: as §1

A2BAR [5] = molecular target: T4, A2BAR; assay: Cellular impedance label-free assay (xCELLigence) in A2BAR-SNAP cells; format: cell-based; settings: compound 1 μM, NECA 1 μM, 45 min, n = 4
Description: To further evaluate the ability of 16b, 16j, 16r, and 16s to preclude A2BAR function in living cells, we took advantage of the cellular impedance label-free method, a widely accepted morphological and functional biosensor of cell status.[39] Accordingly, whole-cell NECA-mediated impedance responses of A2BAR^SNAP cells were monitored in real time in the absence or presence of 16b, 16j, 16r, and 16s.
Figure 4 Blockade of A2BAR-mediated whole-cell label-free responses. (A) Representative example of the impedance signal obtained over the time upon incubation with A2BAR ligands. […] (B) The area under the curve (AUC) derived from the normalized cell index (NCI) shown in (A) was calculated for each condition. Data are expressed as mean ± SEM (n = 4). ***P < 0.001 and **P < 0.01, one-way ANOVA with a Dunnett’s multiple-comparison test when compared to vehicle (Veh).
The xCELLigence RTCA system (Roche) was employed to assess the impact of blocking A2BAR-mediated effects in cellular impedance upon receptor activation, as previously described.[57]−[60] To this end, A2BAR^SNAP cells were growth in 16-well E-plates (Roche), using DMEM supplemented with 1 mM sodium pyruvate, 2 mM L-glutamine, 100 U/mL streptomycin, […] penicillin, and 1.5% (v/v) fetal bovine serum in the presence of 0.5 U/mL of ADA. Of note, wells were previously coated with 50 μL fibronectin (10 μg/mL; Sigma-Aldrich) and the background index for each well was determined with supplemented DMEM (90 μL) in the absence of cells. Subsequently, A2BAR^SNAP cells (90 μL) were plated at a cell density of 10,000 cells/well and grown for 18 h in the RTCA SP device station (Roche) at 37 °C in an atmosphere of 5% CO2. Then, before ligand addition, cell index values were normalized to the same time point using the RTCA software, providing the normalized cell index (NCI). After ligand stimulation, NCI was recorded every 15 s for a total time of at least 45 min. The area under the curve (AUC) for every condition was calculated using GraphPad Prism 9.

hA1AR [6] = molecular target: T2, hA1AR; settings: prototype series, [3H]DPCPX, human CHO cells ref 30, 31; cited from earlier work
hA3AR [7] = molecular target: T1, hA3AR; settings: prototype series, [3H]NECA, human HeLa cells ref 30, 31; cited from earlier work
A2B = settings: Figure 1, representative A2B antagonists ref 28-32; read-out: Ki; cited from earlier work
hA2AAR [8] = molecular target: T5, hA2AAR; settings: prototype series, human HeLa cells ref 30, 31; cited from earlier work
[9] = displacement of specific [3H]DPCPX binding in human HEK-293 cells, n = 3

T5 sequence (P29274 whole entry): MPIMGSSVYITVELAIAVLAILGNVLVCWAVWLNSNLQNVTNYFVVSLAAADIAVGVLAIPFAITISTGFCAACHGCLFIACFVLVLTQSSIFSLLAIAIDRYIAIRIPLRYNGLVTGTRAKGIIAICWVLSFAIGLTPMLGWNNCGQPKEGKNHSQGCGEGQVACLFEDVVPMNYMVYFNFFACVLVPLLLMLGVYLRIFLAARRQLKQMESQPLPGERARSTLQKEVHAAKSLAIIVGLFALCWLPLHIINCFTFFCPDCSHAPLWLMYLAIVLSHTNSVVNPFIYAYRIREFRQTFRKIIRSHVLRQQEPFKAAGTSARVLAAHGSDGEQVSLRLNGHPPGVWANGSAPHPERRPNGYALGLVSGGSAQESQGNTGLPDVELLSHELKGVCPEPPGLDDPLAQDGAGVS

Structure (SMILES) | % at 1 μM hA3 (percentage displacement of specific binding) (hA3AR [1]) [%] | % at 1 μM hA1 (percentage displacement of specific binding) (hA1AR [2]) [%] | Ki (hA2BAR; [9]) [nM] | Ki (hA2BAR) [nM] | Kb (A2BAR [3]) [nM] | % at 1 μM hA2A (percentage displacement of specific binding) (hA2AAR [4]) [%] | Blockade of NECA-induced changes in cellular impedance (AUC of normalized cell index) (A2BAR [5]) | % at 1 μM hA3 (percentage displacement of specific binding) (hA3AR [1]; listed as (±)-ISAM-140) [%] | % at 1 μM hA3 (percentage displacement of specific binding) (hA3AR [1]; listed as ISAM-140) [%] | % at 1 μM hA1 (percentage displacement of specific binding) (hA1AR [6]) [%] | % at 1 μM hA1 (percentage displacement of specific binding) (hA1AR [2]; listed as (±)-ISAM-140) [%] | % at 1 μM hA1 (percentage displacement of specific binding) (hA1AR [2]; listed as ISAM-140) [%] | % at 1 μM hA2B (percentage displacement of specific binding) (hA2BAR; 1 μM, [3H]DPCPX, human HEK-293 cells, n = 2) [%] | Exp. dG (hA2BAR; experimental binding free energy, Supplementary Table S3, unit not given (errors in kcal/mol)) | % at 1 μM hA3 (percentage displacement of specific binding) (hA3AR [7]) [%] | Ki (A2B) [nM] | % at 1 μM hA2A (percentage displacement of specific binding) (hA2AAR [4]; listed as (±)-ISAM-140) [%] | % at 1 μM hA2A (percentage displacement of specific binding) (hA2AAR [4]; listed as ISAM-140) [%] | % at 1 μM hA2A (percentage displacement of specific binding) (hA2AAR [8]) [%]
CCOC(=O)C1=C(C)Nc2nc3cc(Br)ccc3n2C1c1ccoc1 (centres unmarked) [16s] | 25 | 1 | 3.32 ± 0.4 | < 10 | 1.5 ± 0.5 | 37 | significantly blocked |  |  |  |  |  |  |  |  |  |  |  | 
CC1=C(C(=O)OC(C)C)C(c2ccco2)n2c(nc3ccccc32)N1 (centres unmarked) [II, reference compound] |  |  | 3.49 ± 0.2 |  |  |  |  | 2 | 3 | 20 | 20 | 14 | 17 | -11.53 | 2 | 3.49 | 28 | 7 | 28
